From PubChem BioAssay (NCI) come the findings set out here.

What all share (assay): NCI anticancer screen, dose series, 48 h
In experiment [1] the test system is HOP-92 NSCLC.
Experiment [2] concerns UACC-257 melanoma.
The subject of experiment [3] is A498 renal.
Experiment [4] has as its system HOP-62 NSCLC.
The test system of experiment [5] is SK-MEL-5 melanoma.
Experiment [6] relates to NCI-H23 lung.
Experiment [7] has as its system SR leukemia.
Experiment [8] concerns HL-60(TB) leukemia.
Experiment [9] concerns HCC-2998 colon.
In experiment [10] the test system is DU-145 prostate.

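Five compound concentrations were applied to cells in 96-well plates for 48 hours; endpoints were derived by simple linear interpolation of the resulting dose-response curve. At the GI50, growth is halved. TGI: total growth inhibition.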

Turning to `Cc1nc(Nc2ccc(Cl)cc2)sc1C(=O)Nc1cccc2c(=O)[nH][nH]c(=O)c12`, the TGI was 38.8 µM in experiment [1]; more than 100 µM in [2]; 59.4 µM in experiment [3]; more than 100 µM in [4]; 45.2 µM in [5]; 40.5 µM in experiment [6]. Besides, the TGI was 64.8 µM in [7], 45.2 µM in experiment [8] and more than 100 µM in [9].
Regarding `COc1cc(N)c(Cl)cc1C(=O)N[C@@H]1CCN(CCCOc2ccc(F)cc2)C[C@@H]1OC`, the GI50 in experiment [10] was more than 100 µM; in experiment [5], 17.8 µM; in experiment [6] it was more than 100 µM; in experiment [7], 13.6 µM; in [8], 82.4 µM; in experiment [9], 35.2 µM. For the same compound, the TGI is more than 100 µM in experiment [10]; more than 100 µM in [5]; more than 100 µM in experiment [6]; 50.4 µM in [7]; more than 100 µM in experiment [8]; more than 100 µM in [9].
Regarding `CCNC(=O)COc1ccc(Cl)c(C)c1`, the TGI in [1], in experiment [2], in experiment [3], in [4], in experiment [5] and in experiment [6] was more than 100 µM throughout. Also, the TGI in [7], in [8] and in experiment [9] was more than 100 µM throughout.
Regarding `c1ccc(N2CCN(CCN3CCc4c([nH]c5ccccc45)C3c3cccnc3)CC2)cc1` (configuration not stated), the TGI in experiment [1] was 92.5 µM; in experiment [2], more than 100 µM; in experiment [3], more than 100 µM; in experiment [4], more than 100 µM; in experiment [5], more than 100 µM; in experiment [6] it was more than 100 µM. For the same compound, the TGI in experiment [7], in [8] and in experiment [9] was more than 100 µM each time.
`C[C@]12CCC3c4ccc(O)cc4CCC3C1CC[C@@H]2NC(=O)/C=C/c1ccc(O)c(O)c1` (some centres not stated): the GI50 is 5.59 µM in [1]; 13.1 µM in [10]; 16.1 µM in experiment [4]; 10.5 µM in experiment [5]; 11.8 µM in experiment [6]; 7.26 µM in experiment [7]. Moreover, the GI50 in experiment [9] is 15.6 µM. Also, the TGI in experiment [1] came to 25.1 µM; in experiment [10], 32.5 µM; in [4] it was 35.9 µM; in [5], 25.2 µM; in experiment [6], 28.5 µM; in [7], 42 µM. Further, in experiment [9], the TGI is 30.3 µM.
Take `COc1cccc(C=NC23CC4CC(CC(C4)C2)C3)c1`: the TGI in [1], in experiment [2], in [3], in [4], in experiment [5] and in [6] was more than 100 µM each time. For the same compound, the TGI in experiment [7], in experiment [8] and in experiment [9] was more than 100 µM each time.
For the compound `Cn1cc(-c2csc(-c3ccc(Cl)cc3)n2)c2cccnc21`, the GI50 in experiment [1] was 2.54 µM; in experiment [2], 19.9 µM; in [10] it was 15.3 µM; in [4], 17.2 µM; in [5], 13.9 µM; in [6] it was 13.7 µM. Further, the GI50 in [7] is 13.3 µM; in experiment [8], 10.4 µM; in experiment [9], 14.6 µM. The TGI amounted to 19.1 µM in [1]; 43.5 µM in experiment [2]; 28.9 µM in experiment [10]; 32.4 µM in [4]; 27.6 µM in experiment [5]; 31 µM in experiment [6]. Besides, the figures for the TGI in [7], in [8] and in [9] were 59.6 µM, 47.5 µM and 28.8 µM, respectively.
On to `CCOC(=O)NN1C(=O)C(=P(c2ccccc2)(c2ccccc2)c2ccccc2)C(C(=O)OC)=C1C`, for which the TGI in experiment [1], in [2], in [3], in [4], in [5] and in experiment [6] was more than 100 µM each time. In addition, the TGI in experiment [7], in experiment [8] and in experiment [9] was more than 100 µM each time.
On to `COC(=O)C1=C(O)c2cc(OC)c(OC)c(OC)c2C(c2ccc3c(c2)OCO3)[C@@H]1C(=O)OC` (some centres not stated), for which the TGI in experiment [1] was more than 100 µM; in experiment [2], more than 100 µM; in experiment [3] it was 19.2 µM; in experiment [4], more than 100 µM; in [6], more than 100 µM; in experiment [7], more than 100 µM. In addition, the TGI in experiment [8] turned out to be 5.49 µM; in experiment [9], 31.7 µM.
For the compound `NC(=S)c1cccc(C2Nc3ccccc3O2)c1` (configuration not stated), the TGI in experiment [1], in experiment [2], in [10], in experiment [4], in [5] and in [6] was more than 100 µM in each case. Besides, the TGI in experiment [7] and in experiment [8] was more than 100 µM in each case.
As for `O=C(Cc1nc2ccccc2s1)C(=O)Nc1cccc(C(F)(F)F)c1`, the TGI in experiment [1], in experiment [2], in experiment [3], in experiment [4], in experiment [5] and in [6] was more than 100 µM in each case. The TGI in experiment [7], in experiment [8] and in [9] was more than 100 µM in each case.
As for `CCOC(=N)CC(=O)Nc1ccccc1CC`, the TGI in [2], in experiment [3], in experiment [4], in experiment [5], in experiment [6] and in experiment [7] was more than 100 µM each time. The TGI in experiment [8] and in [9] was more than 100 µM in each case.
Turning to `O=C(C#Cc1ccccc1)NC/C=C/c1ccccc1`, the TGI in experiment [1] is 57.2 µM; in [2] it was more than 100 µM; in experiment [3], more than 100 µM; in experiment [4] it was 52.5 µM; in experiment [5], more than 100 µM; in experiment [6], more than 100 µM. The TGI in experiment [7] is more than 100 µM; in experiment [8] it was 58.1 µM; in [9] it was 99.2 µM.
With `COc1cc(C=NCC(=O)CSC(c2ccccc2)c2ccccc2)ccc1O`, the GI50 in experiment [1] was 10 µM; in experiment [2], 5.94 µM; in experiment [10], 12.2 µM; in [4], 14.6 µM; in [5] it was 4.83 µM; in [6] it was 8 µM. Further, the GI50 in experiment [7] is 8.27 µM; in experiment [8] it was 11.4 µM; in experiment [9], 3.6 µM. Also, the TGI in experiment [1] came out at 21.7 µM; in experiment [2], 18.7 µM; in [10], 37.8 µM; in experiment [4], 27.9 µM; in experiment [5] it was 18.2 µM; in experiment [6], 20.5 µM. Besides, the TGI in [7] is 25.3 µM; in experiment [8], 27.6 µM; in experiment [9], 16.5 µM.
Regarding `O=C(Nc1ccccc1)N1C(c2ccccc2)=N[C@@H](c2ccccc2)[C@@H]1c1ccccc1`, the TGI was determined as 53.3 µM in experiment [1]; 35.3 µM in experiment [2]; 35.8 µM in [3]; 47.9 µM in experiment [4]; 26.8 µM in experiment [5]; 55.4 µM in experiment [6]. In addition, the results for the TGI in experiment [7], in experiment [8] and in experiment [9] were 40.4 µM, 46.5 µM and 35.2 µM, respectively.
In the case of `OC(Cc1cccc2ccccc12)CN1CCC(c2ccccc2)CC1` (configuration not stated), the TGI was determined as 27.4 µM in experiment [1]; 18.8 µM in experiment [2]; 31.9 µM in [10]; 30.2 µM in [4]; 24.4 µM in [5]; 30.8 µM in experiment [6]. Also, the TGI in [7] was 27.4 µM; in experiment [8], 41.2 µM; in experiment [9], 10.8 µM.
Regarding `Cn1cnnc1Sc1c([N+](=O)[O-])nc(-c2ccc([N+](=O)[O-])cc2)n1C`, the TGI is 34.9 µM in [1]; 29.5 µM in [2]; more than 100 µM in experiment [3]; more than 100 µM in [4]; 30.8 µM in experiment [5]; 32.4 µM in experiment [6]. Moreover, the TGI in experiment [7] is 35.5 µM; in experiment [9], 31.8 µM.
Turning to `COc1ccc(/C=C(\C#N)c2cc(OC)c(OC)c(OC)c2)cc1`, the GI50 in [1] was 0.277 µM; in experiment [2], 0.012 µM; in [3] it was 0.0123 µM; in [4], less than 0.0184 µM; in experiment [5] it was 0.0182 µM; in experiment [6] it was 0.0242 µM. Moreover, the values for the GI50 in experiment [7], in experiment [8] and in [9] were less than 0.01 µM, 0.0244 µM and 0.0283 µM, respectively. In addition, the TGI in experiment [1] is 25.1 µM; in [2], more than 100 µM; in [3], 1.58 µM; in experiment [4] it was more than 100 µM; in experiment [5], 0.0644 µM; in experiment [6], more than 100 µM. Besides, the figures for the TGI in [8] and in experiment [9] were 0.0661 µM and 1.25 µM, respectively.
